Assay results as given in BigSolDB 2.1.

O=C(O)CC[C@H](NC(=O)OCC1c2ccccc2-c2ccccc21)C(=O)O
solubility (mole fraction)
Conditions	283.15 K	288.15 K	293.15 K	298.15 K	303.15 K	308.15 K	313.15 K	318.15 K	323.15 K
in 2-butanone	0.0112	0.0112	0.012	0.0127	0.0136	0.0143	0.0157	0.0176	0.0191
in acetone	0.0243	0.0261	0.0274	0.0295	0.0323	0.0342	0.0393	0.0437	0.0471
in acetonitrile	0.000662	0.000708	0.0008	0.000997	0.00123	0.00139	0.00166	0.00194	0.00232
in dimethyl carbonate	0.00058	0.000625	0.000736	0.000819	0.000911	0.00108	0.00123	0.00157	0.00186
in ethanol	0.0231	0.0257	0.0276	0.0319	0.0371	0.0419	0.0468	0.0514	0.0598
in ethyl acetate	0.00239	0.0026	0.00296	0.00318	0.00347	0.00391	0.00451	0.00498	0.0056
in isopropanol	0.0139	0.0142	0.0156	0.0175	0.0199	0.0238	0.0269	0.0302	0.0351
in methanol	0.0246	0.0266	0.0295	0.0325	0.0364	0.0413	0.0471	0.0525	0.0611
in methyl acetate	0.00319	0.00355	0.00388	0.00418	0.00473	0.00535	0.00609	0.00726	0.00888
in n-butanol	0.00911	0.00972	0.0102	0.0114	0.0127	0.0141	0.016	0.0173	0.0199
in n-butyl acetate	0.00177	0.00182	0.00204	0.0022	0.00238	0.00269	0.00309	0.0034	0.00381
in n-pentanol	0.00655	0.00765	0.00845	0.00993	0.0112	0.0128	0.0159	0.0187	0.0221
in n-propanol	0.0138	0.0146	0.0155	0.0172	0.02	0.0237	0.0258	0.03	0.0333
in n-propyl acetate	0.0016	0.00169	0.00192	0.00204	0.00232	0.00247	0.00281	0.00317	0.00355
